Results from patent US9327038B2, “Stable activatable particles as radiotherapeutic agents for the treatment of disease” (The University of North Carolina at Chapel Hill, priority 2011, dated 2016).

How the values were obtained:
[1] = tested on: SKOV-3 human ovarian tumor cells; assay: Survival of SKOV-3 ovarian tumor mice after intraperitoneal treatment; type: in vivo, athymic (nu/nu) mice; conditions: 73-day period following implantation; i.p. injection twenty days after implantation (108.7 μCi for ^166Ho groups)
Method: An additional 14 SKOV-3 ovarian tumor mice received no treatment and served as the control group.
Statistical analyses were performed to compare the fraction of mice that survived over the course of the 73-day period following implantation. […] FIG. 6.

[2] = tested on: NSCLC A549-luc-c8 cells; assay: Biodistribution after intravenous injection in NSCLC A549-luciferase tumor-bearing mice; type: in vivo, athymic (nu/nu) mice; conditions: one week after i.v. injection, 300 μCi (Example 14 particles)
Method: NSCLC A549-luciferase tumor-bearing mice were prepared by injecting approximately one million NSCLC A549-luc-c8 cells into the lung parenchyma of athymic (nu/nu) mice. Implantation and tumor progression were monitored by detecting luciferase bioluminescence following luciferin injections. FIG. 15A.

[3] = tested on: SKOV-3 human ovarian tumor cells; conditions: mouse, in vivo, ip
Method: SKOV-3 ovarian tumor mice were prepared by injecting approximately 7×10^6 SKOV-3 human ovarian tumor cells into the peritoneal cavity of athymic (nu/nu) mice. Following a two-month incubation period, magnetic resonance imaging (MRI) was used to visualize the resultant tumors.
Biodistribution studies were performed 24 hours after injection by removing various organs from the mice and quantifying the ^166Ho content of each organ using a 2470 Wizard Automatic Gamma Counter (PerkinElmer Inc., Waltham, Mass.).

## CC(=O)C=C(C)[O][166Ho]([O]C(C)=CC(C)=O)[O]C(C)=CC(C)=O [^166Ho(AcAc)3]
[1]
  surviving animals: 66.7%
[2]
  ^166Ho in tumors, percent initial dose per gram: not retained
[3]
  ^166Ho in tumors, percent initial dose per gram: 15.4±2.7 % ID/g
